Results published in article PMC12948223, “HSP70 Interactome‐Mediated Proteolysis Targeting Chimera (HSP70‐PROTAC) for Ferroptosis‐Driven Cancer Treatment” (Advanced Science, 2025).

Each compound was assayed on HT1080 cells (assay: Cell viability CCK-8 assay). Settings: Homo sapiens, HT-1080, CCK-8, 48 h, read-out: IC50 (cytotoxicity).
Assay type: cell-based, human
Experimental: To determine whether GPX4 degradation following treatment with HSP70‐PROTACs triggers cancer cell ferroptosis, we initially assessed the viability of HT1080 cells using the CCK‐8 assay after treatment with various concentrations of the tested compounds for 48 h. GPX4 inhibitor ML162, HSP70 inhibitor apoptozole, and two GPX4 non‐degradable HSP70‐PROTAC molecules, GDAz‐Neg1 and GDAz‐Neg2, were selected as controls. […] This remarkable activity might partly be ascribed to the high cell permeability conferred by the piperazine ring. […] We speculated that the potent anti‐proliferative activity of GDAz‐Neg2 may be attributed to the GPX4 inhibition.
The compounds under investigation were initially dissolved in dimethyl sulfoxide (DMSO) to generate stock solutions with a concentration of 10 mM. HT1080 cells or other tested cells were seeded in 96‐well plates at a density of 3000–5000 cells well^−1 and cultured at 37 °C. Following a 24‐h incubation period, the tested compounds were added to the wells at various concentrations (the DMSO stock solutions of all the tested compounds were diluted with culture medium to obtain the designated concentration containing a final concentration of DMSO less than 0.5% (v/v)). The cells were then cultured for an additional 48 or 72 h. Cell Counting Kit 8 (CCK‐8) assay was conducted to examine the effects of the tested compounds on cell viability, and the absorbance was measured at a wavelength of 450 nm. The IC50 values were determined utilizing GraphPad Prism software through nonlinear regression analysis. All experiments were independently repeated at least three times.
With `COc1ccc(-c2nc(-c3cc(C(F)(F)F)cc(C(F)(F)F)c3)n(Cc3ccc(C(=O)NCCC4CCN(C(=O)Cn5cc(COc6ccc(N(C(=O)CCl)C(C(=O)NCCc7ccccc7)c7cccs7)cc6Cl)nn5)CC4)cc3)c2-c2ccc(OC)cc2)cc1` (stereo not drawn) [GDAz-13, 4-((2-(3,5-bis(trifluoromethyl)phenyl)-4,5-bis(4-methoxyphenyl)-1H-imidazol-1-yl)methyl)-N-(2-(1-(2-(4-((2-chloro-4-(2-chloro-N-(2-oxo-2-(phenethylamino)-1-(thiophen-2-yl)ethyl)acetamido)phenoxy)methyl)-1H-1,2,3-triazol-1-yl)acetyl)piperidin-4-yl)ethyl)benzamide] the IC50 was > 30000 nM.
In the case of `COc1ccc(-c2nc(-c3cc(C(F)(F)F)cc(C(F)(F)F)c3)n(Cc3ccc(C(=O)NC4CCN(C(=O)Cn5cc(COc6ccc(N(C(=O)CCl)C(C(=O)NCCc7ccccc7)c7cccs7)cc6Cl)nn5)CC4)cc3)c2-c2ccc(OC)cc2)cc1` (stereo not drawn) [GDAz-11, 4-((2-(3,5-bis(trifluoromethyl)phenyl)-4,5-bis(4-methoxyphenyl)-1H-imidazol-1-yl)methyl)-N-(1-(2-(4-((2-chloro-4-(2-chloro-N-(2-oxo-2-(phenethylamino)-1-(thiophen-2-yl)ethyl)acetamido)phenoxy)methyl)-1H-1,2,3-triazol-1-yl)acetyl)piperidin-4-yl)benzamide], the IC50 is reported as > 30000 nM.
In the case of `COc1ccc(-c2nc(-c3cc(C(F)(F)F)cc(C(F)(F)F)c3)n(Cc3ccc(C(=O)NCC4CCN(C(=O)Cn5cc(COc6ccc(N(C(=O)CCl)C(C(=O)NCCc7ccccc7)c7cccs7)cc6Cl)nn5)CC4)cc3)c2-c2ccc(OC)cc2)cc1` (stereo not drawn) [GDAz-12, 4-((2-(3,5-bis(trifluoromethyl)phenyl)-4,5-bis(4-methoxyphenyl)-1H-imidazol-1-yl)methyl)-N-((1-(2-(4-((2-chloro-4-(2-chloro-N-(2-oxo-2-(phenethylamino)-1-(thiophen-2-yl)ethyl)acetamido)phenoxy)methyl)-1H-1,2,3-triazol-1-yl)acetyl)piperidin-4-yl)methyl)benzamide], the IC50 is reported as > 30000 nM.
In the case of `COc1ccc(-c2nc(-c3cc(C(F)(F)F)cc(C(F)(F)F)c3)n(Cc3ccc(C(=O)NCCOCCOCCOCCOCCOCCn4cc(COc5ccc(N(C(=O)CCl)C(C(=O)NCCc6ccccc6)c6cccs6)cc5Cl)nn4)cc3)c2-c2ccc(OC)cc2)cc1` (stereo not drawn) [GDAz-5, 4-((2-(3,5-bis(trifluoromethyl)phenyl)-4,5-bis(4-methoxyphenyl)-1H-imidazol-1-yl)methyl)-N-(17-(4-((2-chloro-4-(2-chloro-N-(2-oxo-2-(phenethylamino)-1-(thiophen-2-yl)ethyl)acetamido)phenoxy)methyl)-1H-1,2,3-triazol-1-yl)-3,6,9,12,15-pentaoxaheptadecyl)benzamide], the IC50 is reported as 210 ± 30 nM.
For `COc1ccc(-c2nc(-c3cc(C(F)(F)F)cc(C(F)(F)F)c3)n(Cc3ccc(C(=O)NCCOCCOCCOCCOCCn4cc(COc5ccc(N(C(=O)CCl)C(C(=O)NCCc6ccccc6)c6cccs6)cc5Cl)nn4)cc3)c2-c2ccc(OC)cc2)cc1` (stereo not drawn) [GDAz-4, 4-((2-(3,5-bis(trifluoromethyl)phenyl)-4,5-bis(4-methoxyphenyl)-1H-imidazol-1-yl)methyl)-N-(14-(4-((2-chloro-4-(2-chloro-N-(2-oxo-2-(phenethylamino)-1-(thiophen-2-yl)ethyl)acetamido)phenoxy)methyl)-1H-1,2,3-triazol-1-yl)-3,6,9,12-tetraoxatetradecyl)benzamide], the IC50 was 390 ± 80 nM.
With `COc1ccc(-c2nc(-c3cc(C(F)(F)F)cc(C(F)(F)F)c3)n(Cc3ccc(C(=O)NCCCNC(=O)Cn4cc(COc5ccc(N(C(=O)CCl)C(C(=O)NCCc6ccccc6)c6cccs6)cc5Cl)nn4)cc3)c2-c2ccc(OC)cc2)cc1` (stereo not drawn) [GDAz-7, 4-((2-(3,5-bis(trifluoromethyl)phenyl)-4,5-bis(4-methoxyphenyl)-1H-imidazol-1-yl)methyl)-N-(3-(2-(4-((2-chloro-4-(2-chloro-N-(2-oxo-2-(phenethylamino)-1-(thiophen-2-yl)ethyl)acetamido)phenoxy)methyl)-1H-1,2,3-triazol-1-yl)acetamido)propyl)benzamide] the IC50 was 530 ± 70 nM.
With `COc1ccc(-c2nc(-c3cc(C(F)(F)F)cc(C(F)(F)F)c3)n(Cc3ccc(C(=O)NCCOCCn4cc(COc5ccc(N(C(=O)CCl)C(C(=O)NCCc6ccccc6)c6cccs6)cc5Cl)nn4)cc3)c2-c2ccc(OC)cc2)cc1` (stereo not drawn) [GDAz-1, 4-((2-(3,5-bis(trifluoromethyl)phenyl)-4,5-bis(4-methoxyphenyl)-1H-imidazol-1-yl)methyl)-N-(2-(2-(4-((2-chloro-4-(2-chloro-N-(2-oxo-2-(phenethylamino)-1-(thiophen-2-yl)ethyl)acetamido)phenoxy)methyl)-1H-1,2,3-triazol-1-yl)ethoxy)ethyl)benzamide] the IC50 was 21700 ± 5300 nM.
Work on `COc1ccc(-c2nc(-c3cc(C(F)(F)F)cc(C(F)(F)F)c3)n(Cc3ccc(C(=O)NCCCCNC(=O)Cn4cc(COc5ccc(N(C(=O)CCl)C(C(=O)NCCc6ccccc6)c6cccs6)cc5Cl)nn4)cc3)c2-c2ccc(OC)cc2)cc1` (stereo not drawn) [GDAz-8, 4-((2-(3,5-bis(trifluoromethyl)phenyl)-4,5-bis(4-methoxyphenyl)-1H-imidazol-1-yl)methyl)-N-(4-(2-(4-((2-chloro-4-(2-chloro-N-(2-oxo-2-(phenethylamino)-1-(thiophen-2-yl)ethyl)acetamido)phenoxy)methyl)-1H-1,2,3-triazol-1-yl)acetamido)butyl)benzamide] yielded an IC50 of 130 ± 40 nM.
`COc1ccc(-c2nc(-c3cc(C(F)(F)F)cc(C(F)(F)F)c3)n(Cc3ccc(C(=O)NCCCCCNC(=O)Cn4cc(COc5ccc(N(C(=O)CCl)C(C(=O)NCCc6ccccc6)c6cccs6)cc5Cl)nn4)cc3)c2-c2ccc(OC)cc2)cc1` (stereo not drawn) [GDAz-9, 4-((2-(3,5-bis(trifluoromethyl)phenyl)-4,5-bis(4-methoxyphenyl)-1H-imidazol-1-yl)methyl)-N-(5-(2-(4-((2-chloro-4-(2-chloro-N-(2-oxo-2-(phenethylamino)-1-(thiophen-2-yl)ethyl)acetamido)phenoxy)methyl)-1H-1,2,3-triazol-1-yl)acetamido)pentyl)benzamide] was tested, and the IC50 was 140 ± 20 nM.

These compounds were tested against T1, GPX4 (Homo sapiens, UniProt P36969) (assay: GPX4 degradation by western blot in HT1080 cells). Settings: HT1080 cells, 24 h, concentration over 5 µM.
T1 sequence (P36969 1-170 isoform P36969-2): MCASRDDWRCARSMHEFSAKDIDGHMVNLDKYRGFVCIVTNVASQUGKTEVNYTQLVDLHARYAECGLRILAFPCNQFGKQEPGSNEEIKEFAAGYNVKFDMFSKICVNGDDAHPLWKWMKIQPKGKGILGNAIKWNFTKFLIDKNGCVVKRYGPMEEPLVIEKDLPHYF
Assay type: cell-based
Design: determine the changes in the endogenous levels of GPX4 by western blot assay; endogenous in cells; host or cells: HT1080 fibrosarcoma cells, including siRNA-knockdown derivatives
Experimental: To evaluate the GPX4 degradation efficiency of the synthesized HSP70‐PROTACs GDAz‐1–14, we first selected ferroptosis‐sensitive HT1080 fibrosarcoma cells (highly‐expressing GPX4) treated with different concentrations (0.1, 0.3, 1, and 3 µM) of these chimeras to determine the changes in the endogenous levels of GPX4 by western blot assay after 24 h treatment. […] This finding underscores the crucial role of the linker in HSP70‐PROTAC‐mediated protein degradation. […] In the case of alkyl chain derivatives (GDAz‐6–10), elongating the length of the linker generally led to a decreased GPX4 degrading activity. […] Thus, GDAz‐3 was selected for further evaluation.
Cells were seeded at a density of 4 × 10^5 cells well^−1 in 6‐well plates and allowed to incubate overnight. Cells were incubated with the indicated treatments. Thereafter, the cells were collected and lysed with RIPA buffer containing serine protease and phosphatase inhibitors for 30 min on ice. Proteins were quantified by using a BCA protein assay kit (Beyotime). Subsequently, SDS‐PAGE sample loading buffer was added, and the mixture was heated in a 100 °C metal bath for 10 min to denature the proteins. Protein samples from each group were separated by SDS‐PAGE gel and transferred to a PVDF membrane. After blocking with 5% skim milk for 1 h at room temperature, primary antibodies (GPX4: abcam (#ab125066, 1:1000); Hsp70: abcam (#ab2787, 1:1000); CHIP: HUABIO (#ST7108, 1:1000); UpingBio Technology Co., Ltd. (BRD4, #YP‐Ab‐18034, 1:1000; BAG‐1, #YP‐Ab‐00575, 1:1000); GAPDH: Proteintech (#60004‐1‐Ig, 1:50 000)) were used and incubated at 4 °C overnight on a rotary shaker. After washing the membranes with TBST buffer five times, the membranes were incubated with a second antibody (Cell Signaling Technology, #7074S, 1:1000 and #7076S, 1:1000) at room temperature for 2 h. Ultimately, the membrane was washed five times, and the antibody‐protein complexes were visualized using an ECL luminescence reagent (Biosharp, Shanghai, China). The relative intensities of the bands were analyzed by ImageJ and normalized to a loading control.
In the case of `COc1ccc(-c2nc(-c3ccc(OCc4cn(CCOCCOCCOCCNC(=O)CCCC[C@@H]5SC[C@@H]6NC(=O)N[C@@H]65)nn4)cc3)n(Cc3ccc(C(=O)NCCOCCOCCOCCn4cc(COc5ccc(N(C(=O)CCl)C(C(=O)NCCc6ccccc6)c6cccs6)cc5Cl)nn4)cc3)c2-c2ccc(OC)cc2)cc1` (stereo partly drawn) [GDAz-biotin], the “GPX4 degradation activity of the probe” value is reported as “considerable GPX4 degradation activity”.

Same assay, conditions: HT1080 cells, 24 h, tested concentrations (Figure 4A)
In the case of `COc1ccc(-c2nc(-c3cc(C(F)(F)F)cc(C(F)(F)F)c3)n(Cc3ccc(C(=O)NCCOCCOCCOCCn4cc(COc5ccc(N(C(=O)CO)C(C(=O)NCCc6ccccc6)c6cccs6)cc5Cl)nn4)cc3)c2-c2ccc(OC)cc2)cc1` (stereo not drawn) [GDAz-OH], the “GPX4 degradation by negative control compounds” value is reported as “none of the compounds effectively triggered GPX4 degradation”.

Same assay, conditions: HT-1080, HT1080 cells, MLN4924 2.5 µM alone; read-out: GPX4 % of control
`NS(=O)(=O)OC[C@@H]1C[C@@H](n2ccc3c(N[C@H]4CCc5ccccc54)ncnc32)C[C@@H]1O` [MLN4924, reference compound] showed a remaining activity at 2.5 µM of 96%.
